Measurements reported in the NIST ThermoML archive (doi:10.1021/je900134z).
Numbers after ± are expanded uncertainties.

Assays:
[1] = for mass density / viscosity: 101.33 kPa, Liquid; for viscosity: Surface Light Scattering; for surface tension liquid-gas: Drop weight
[2] = refractive index (Na D-line) (dimensionless); conditions: 101.33 kPa, Liquid

| Structure (SMILES) | mass density ([1]; 273.15 K) [kg/m3] | viscosity ([1]; 273.15 K) [mPa·s] | mass density ([1]; 278.15 K) [kg/m3] | viscosity ([1]; 278.15 K) [mPa·s] | mass density ([1]; 283.15 K) [kg/m3] | viscosity ([1]; 283.15 K) [mPa·s] | mass density ([1]; 288.15 K) [kg/m3] | viscosity ([1]; 288.15 K) [mPa·s] | surface tension liquid-gas ([1]; 293.15 K) [mN/m] | mass density ([1]; 293.15 K) [kg/m3] | viscosity ([1]; 293.15 K) [mPa·s] | mass density ([1]; 298.15 K) [kg/m3] | mass density ([1]; 303.15 K) [kg/m3] | viscosity ([1]; 303.15 K) [mPa·s] | mass density ([1]; 308.15 K) [kg/m3] | mass density ([1]; 313.15 K) [kg/m3] | viscosity ([1]; 313.15 K) [mPa·s] | mass density ([1]; 318.15 K) [kg/m3] | viscosity ([1]; 323.15 K) [mPa·s] | mass density ([1]; 328.15 K) [kg/m3] | also measured |
| --- | --- | --- | --- | --- | --- | --- | --- | --- | --- | --- | --- | --- | --- | --- | --- | --- | --- | --- | --- | --- | --- |
| CCn1cc[n+](C)c1.CO[PH](=O)[O-] [1-ethyl-3-methylimidazolium methyl phosphonate] | 1208.75 ± 2.2 | 563.9 ± 34 | 1205.29 ± 2.2 | 379.6 ± 23 | 1201.82 ± 2.2 | 266.6 ± 16 | 1198.42 ± 2.1 | 193.2 ± 12 | 45.49 ± 1 | 1195.12 ± 2.1 | 143.1 ± 8.7 | 1191.82 ± 2.1 | 1188.5 ± 2.1 | 83.4 ± 5.1 | 1185.21 ± 2.1 | 1181.92 ± 2.1 | 53.9 ± 3.3 | 1178.65 ± 2 | 36.4 ± 2.2 | 1172.14 ± 2 | mass density ([1]; 323.15 K): 1175.39 ± 2 kg/m3; mass density ([1]; 333.15 K): 1168.89 ± 2 kg/m3; viscosity ([1]; 333.15 K): 27.4 ± 1.7 mPa·s; mass density ([1]; 338.15 K): 1165.66 ± 2 kg/m3; mass density ([1]; 343.15 K): 1162.45 ± 2 kg/m3; mass density ([1]; 348.15 K): 1159.25 ± 1.9 kg/m3; mass density ([1]; 353.15 K): 1156.06 ± 1.9 kg/m3; mass density ([1]; 358.15 K): 1152.9 ± 1.9 kg/m3; mass density ([1]; 363.15 K): 1149.73 ± 1.9 kg/m3; refractive index ([2]; 283.15 K): 1.4969 ± 0.0016; refractive index ([2]; 293.15 K): 1.4935 ± 0.0016; refractive index ([2]; 303.15 K): 1.4928 ± 0.0016; refractive index ([2]; 313.15 K): 1.4902 ± 0.0016 |
| CCCCn1cc[n+](CCCC)c1.O=S(=O)([N-]S(=O)(=O)C(F)(F)F)C(F)(F)F | 1362.73 ± 2 | 277.9 ± 17 | 1358.06 ± 2 | 203 ± 12 | 1353.51 ± 2 | 152.1 ± 9.2 | 1349.01 ± 1.9 | 115.3 ± 6.9 | 29.55 ± 0.62 | 1344.5 ± 1.9 | 89.5 ± 5.4 | 1340.01 ± 1.9 | 1335.51 ± 1.9 | 57.2 ± 3.4 | 1331.02 ± 1.9 | 1326.56 ± 1.9 | 37.9 ± 2.3 | 1322.09 ± 1.9 | 26.5 ± 1.6 | 1313.2 ± 1.8 | mass density ([1]; 333.15 K): 1308.77 ± 1.8 kg/m3; viscosity ([1]; 333.15 K): 19.2 ± 1.2 mPa·s; mass density ([1]; 338.15 K): 1304.36 ± 1.8 kg/m3; mass density ([1]; 343.15 K): 1299.99 ± 1.8 kg/m3; mass density ([1]; 348.15 K): 1295.57 ± 1.8 kg/m3; mass density ([1]; 353.15 K): 1291.2 ± 1.8 kg/m3; mass density ([1]; 358.15 K): 1286.84 ± 1.7 kg/m3; mass density ([1]; 363.15 K): 1282.5 ± 1.7 kg/m3; refractive index ([2]; 283.15 K): 1.4376 ± 0.0016; refractive index ([2]; 293.15 K): 1.4347 ± 0.0015; refractive index ([2]; 303.15 K): 1.4324 ± 0.0015; refractive index ([2]; 313.15 K): 1.4298 ± 0.0015 |
| CCCCCCCCOS(=O)(=O)[O-].CCn1cc[n+](C)c1 [1-ethyl-3-methylimidazolium octyl sulfate] | 1111.56 ± 1.1 | 3894.8 ± 230 | 1108 ± 1.1 | 2429.9 ± 150 | 1104.34 ± 1.1 | 1578.5 ± 95 | 1100.82 ± 1.1 | 1045.1 ± 63 | 31 ± 0.65 | 1097.48 ± 1.1 | 717.8 ± 43 | 1094.15 ± 1.1 | 1090.83 ± 1.1 | 368.1 ± 22 | 1087.52 ± 1.1 | 1084.2 ± 1 | 208.1 ± 12 | 1080.97 ± 1 | 126.2 ± 7.6 | 1074.55 ± 1 | mass density ([1]; 333.15 K): 1071.34 ± 1 kg/m3; viscosity ([1]; 333.15 K): 80.9 ± 4.9 mPa·s; mass density ([1]; 338.15 K): 1068.14 ± 1 kg/m3; mass density ([1]; 343.15 K): 1064.94 ± 0.99 kg/m3; mass density ([1]; 348.15 K): 1061.76 ± 0.98 kg/m3; mass density ([1]; 353.15 K): 1058.59 ± 0.97 kg/m3; mass density ([1]; 358.15 K): 1055.42 ± 0.96 kg/m3; mass density ([1]; 363.15 K): 1052.26 ± 0.96 kg/m3; refractive index ([2]; 283.15 K): 1.4786 ± 0.0015; refractive index ([2]; 293.15 K): 1.4766 ± 0.0015; refractive index ([2]; 303.15 K): 1.4737 ± 0.0015; refractive index ([2]; 313.15 K): 1.4712 ± 0.0015 |
| CCn1cc[n+](C)c1.CS(=O)(=O)[O-] [1-ethyl-3-methylimidazolium methanesulfonate] | 1259.14 ± 1.6 | 1112.6 ± 67 | 1255.59 ± 1.6 | 676.3 ± 41 | 1252.04 ± 1.5 | 435.5 ± 26 | 1248.49 ± 1.5 | 290.1 ± 18 | 50.72 ± 1.1 | 1244.96 ± 1.5 | 205.2 ± 12 | 1241.52 ± 1.5 | 1238.15 ± 1.5 | 112.9 ± 6.8 | 1234.77 ± 1.5 | 1231.4 ± 1.4 | 69 ± 4.2 | 1228.03 ± 1.4 | 44.6 ± 2.7 | 1221.33 ± 1.4 | mass density ([1]; 333.15 K): 1218 ± 1.4 kg/m3; viscosity ([1]; 333.15 K): 31.7 ± 1.9 mPa·s; mass density ([1]; 338.15 K): 1214.69 ± 1.4 kg/m3; mass density ([1]; 343.15 K): 1211.38 ± 1.4 kg/m3; mass density ([1]; 348.15 K): 1208.09 ± 1.4 kg/m3; mass density ([1]; 353.15 K): 1204.82 ± 1.4 kg/m3; mass density ([1]; 358.15 K): 1201.56 ± 1.4 kg/m3; mass density ([1]; 363.15 K): 1198.31 ± 1.3 kg/m3; refractive index ([2]; 283.15 K): 1.5018 ± 0.0015; refractive index ([2]; 293.15 K): 1.4996 ± 0.0015; refractive index ([2]; 303.15 K): 1.4977 ± 0.0015; refractive index ([2]; 313.15 K): 1.4949 ± 0.0015 |
